Experimental data reported in US10398713B2, “Compositions and methods for the treatment of neurodegenerative and other diseases” (Glialogix, Inc., priority 2013, dated 2019).
Each block holds one molecule with its values, some of them ahead of it.

Key:
[1] = for Cmax GB: 4.5 mg, pH 2; for AUC / Cmax IB: pH 5.5
[2] = in vivo; settings: male, Sprague-Dawley, rat, 400 mg/kg
Experimental: Rats were allowed to eat ad libitum before testing. […] Following drug administration, 200 μl of plasma was collected from each animal at the following time points: 30, 60, 90, 120, 160 and 240 minutes. Plasma samples were snap frozen in liquid N2 and stored at −80° C. until analysis.

[3] = label / literature; cited from earlier work
[4] = tested on: SOD1 mouse model; settings: cited from earlier work
[5] = SOD1 mouse model, published results (Shin et al. 2012; Lincecum et al. 2010)

Cmax GB [1]: 154000 ng/mL | AUC [1]: 30,300 min * ug/mL | Cmax IB [1]: 372000 ng/mL
SMILES: O=C(O)c1cc(N=Nc2ccc(S(=O)(=O)Nc3ccccn3)cc2)ccc1O [Amorphous sulfasalazine, sulfasalazine]

concentration at 0.5 h [2]: 1490 ng/mL | concentration at 1 h [2]: 1140 ng/mL | concentration at 1.5 h [2]: 1430 ng/mL | concentration at 2 h [2]: 1260 ng/mL | concentration at 3 h [2]: 1030 ng/mL | concentration at 4 h [2]: 850 ng/mL | Cmax GB [1]: 15000 ng/mL | AUC [1]: 22,200 min * ug/mL | Cmax IB [1]: 282000 ng/mL
SMILES: O=C(O)c1cc(N=Nc2ccc(S(=O)(=O)Nc3ccccn3)cc2)ccc1O [Crystalline sulfasalazine, sulfasalazine]

SMILES: Nc1ccc(S(=O)(=O)Nc2ccccn2)cc1 [Sulfapyridine, sulfapyridine]
bioavailability (share reaching the circulation following oral dosing) [3]: > 70%

SMILES: CC(C)Cc1ccc(C(C)C(=O)O)cc1 (stereo not shown) [ibuprofen]
decreased lifespan after onset of neurological disease [4, 5]: 10%

SMILES: Nc1nc2ccc(OC(F)(F)F)cc2s1 [riluzole]
increased absolute lifespan ([4]; SOD1 model, Lincecum et al. 2010): 1.6% | increased lifespan after onset of neurological disease [4, 5]: 1%
